Experimental data from US20200113902A1, “COMPOSITIONS AND METHODS FOR TREATING CANCERS WITH COVALENT INHIBITORS OF CYCLIN-DEPENDENT KINASE 7 (CDK7)” (Syros Pharmaceuticals, Inc., priority 2017, published 2020).

How the values were obtained:
HCC70 cells = assay: Growth rate (GR) inhibition, Cell Titer Glo 2.0, HCC70; type: cell-based, human; conditions: concentrations greater than 100 nM, 72 hours
Method: (§1) To determine the effect of Compound 1 on the growth of TNBC cancer cells, four different human TNBC cell lines were used—HCC70, MDA-MB-468, MDA-MB-453 and CAL120. Cells from each cell line were plated separately at 50,000 cells/mL (100 uL per well) in a black-walled 96 well plate and allowed to adhere overnight. In parallel, cells were plated in a separate day 0 plate to measure the number of cells present upon compound addition. The next day, Compound 1 was added to the wells with an HP 300e compound dispenser in a 10-point serial dilution and cells incubated for 72 hours. On the same day Cell Titer Glo 2.0 reagent was added to the day 0 plate, and the luminescence measured with an Envision plate reader per manufacture protocol. After 72 hours Cell Titer Glo 2.0 reagent was added to the plates and the luminescence measured. GR curves were calculated as follows: […]
(§2) wherein x(c) is the Compound 1 treatment luminescence); x0 is the average Day 0 luminescence); and xctrl is the average DMSO treatment luminescence, and graphed using Graph Pad Prism. A GR value of 1 indicates no growth inhibition; GR values between 0 and 1 indicate partial growth inhibition; a GR value of 0 indicates cytostasis (no change from baseline); GR values less than 0 indicate cytotoxicity (cell number less than baseline); a GR value of −1 indicates complete cell loss.

MDA-MB-468 cells = assay: Growth rate (GR) inhibition, Cell Titer Glo 2.0, MDA-MB-468; type: cell-based, human; conditions: concentrations greater than 100 nM, 72 hours
Method: as §1, §2

BR5010 xenografts = assay: TNBC patient-derived xenograft BR5010, tumor volume; type: in vivo, mouse; conditions: 40 mg/kg or 30 mg/kg i.v. BIW
Method: Patient-derived xenograft (PDX) models from TNBC patients (BR5010, BR5013, BR5015, and BR5023) were established in NOD-SCID mice at Crown Bioscience (San Diego, USA). Cryo vials containing tumor cells were thawed and prepared for injection into mice. Cells were washed in PBS, counted, and resuspended in cold PBS at a concentration of 50,000-100,000 viable cells/100 ul. Cell suspensions were mixed with an equal volume of Cultrex ECM and kept on ice during transport to the vivarium. Cells were prepared for injections by withdrawing ECM-Cell mixture into a chilled slip-tip syringe fitted with a 26G 7/8 (0.5 mm×22 mm) needle. The filled syringes were kept on ice to avoid the solidification of ECM. Each mouse was inoculated subcutaneously in the right flank with 200 uL of the cell suspension. Tumor sizes were measured in two dimensions using a caliper, and the volumes were expressed in mm^3 using the formula: V=0.5 a×b^2, where a and b are the longest and shortest diameters of the tumor, respectively. Compound 1 treatment was started when the average tumor size reached 150-200 mm^3.
Compound 1 was formulated in w/v 20% Captisol (pH 4-6) and administered by i.v. twice weekly (BIW) at a final dose of 40 mg/kg or 30 mg/kg in a 10 ml/kg volume. Tumor volumes were measured twice weekly over the course of the study. […]

[1] = test system: homologous recombination deficiency / carboplatin sensitivity genes in TOV21G cells; assay: Nanostring PanCancer Pathways mRNA, TOV21G; type: cell-based; conditions: 50 nM, 16 hours
Method: Ovarian Cell lines OvCar3, TOV21G, A2780 and COV318 were plated at 500,000 cells/well in a 6-well plate the day before treatment. The next day the cells were treated with vehicle or 50 nM Compound 1 for 0, 6, or 16 hours after which cells were harvested and total RNA collected using RNeasy mini kit (Qiagen). Changes in mRNA between samples were analyzed with Nanostring™ PanCancer Pathways Panels specifically analyzing genes related to homologous recombination deficiency and carboplatin sensitivity (ie. BRCA1, BRCA2, Rad51, ATM, ATR, MSH2, MSH6). Nanostring signal intensities were first normalized to housekeeping genes across all cell lines, and then normalized to the 0 hour timepoint within a cell line.

Structure (SMILES): CN(C)C/C=C/C(=O)Nc1ccc(C(=O)N[C@@]2(C)CCC[C@@H](Nc3ncc(Cl)c(-c4c[nH]c5ccccc45)n3)C2)nc1 [Compound 1, N-((1S,3R)-3-(5-chloro-4-(1H-indol-3-yl)pyrimidin-2-ylamino)-1-methylcyclohexyl)-5-((E)-4-(dimethylamino)but-2-enamido)picolinamide]
- Inhibition of growth (GR curve) (HCC70 cells): almost complete inhibition of growth
- Inhibition of growth (GR curve) (MDA-MB-468 cells): almost complete inhibition of growth
- Tumor growth vs untreated historical samples (BR5010 xenografts): consistently inhibited tumor growth
- mRNA of genes related to homologous recombination deficiency and carboplatin sensitivity, all genes except Rad51 (BRCA1, BRCA2, ATM, ATR, MSH2, MSH6) [1]: downregulated
